This is an account of results in patent US12122761B2, “2-azaspiro[3.4]octane derivatives as M4 agonists” (NOVARTIS AG, priority 2019, dated 2024).

pEC50: −log10 of the molar value. Like-named read-outs stand apart in the source and are kept apart here.

Assay [1] has as its target T1, human cloned CHRM4 receptor (M4_CHO cells) (Homo sapiens, UniProt P08173).
T1 construct: expressed in transfected cells; host or cells: CHO-K1
T1 sequence (P08173 1-479): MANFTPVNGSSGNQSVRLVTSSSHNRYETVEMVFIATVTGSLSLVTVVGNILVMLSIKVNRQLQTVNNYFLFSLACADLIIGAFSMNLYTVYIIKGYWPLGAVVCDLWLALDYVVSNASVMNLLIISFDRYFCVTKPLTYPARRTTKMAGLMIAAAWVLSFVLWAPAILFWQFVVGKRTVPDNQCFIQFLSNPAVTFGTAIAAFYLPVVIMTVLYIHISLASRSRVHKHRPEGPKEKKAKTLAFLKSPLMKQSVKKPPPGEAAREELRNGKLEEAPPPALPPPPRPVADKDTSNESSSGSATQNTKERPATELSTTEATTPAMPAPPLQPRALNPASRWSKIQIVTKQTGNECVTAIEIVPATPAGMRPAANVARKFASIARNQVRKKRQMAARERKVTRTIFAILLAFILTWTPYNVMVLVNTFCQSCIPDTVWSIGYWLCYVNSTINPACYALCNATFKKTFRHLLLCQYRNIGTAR
The assay is described as follows: CHRM4 Ca++ Flux Assay (agonist mode, FDSS 7000EX). It counts as cell-based. The following applies: for M4 FDSS PA / Emax: Percent Activity; for pEC50: geometric mean if tested more than once, read-out: M4 FDSS EC50; for Emax: read-out: M4 FDSS PA. The method in brief:
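Agonist-mode response was expressed as percent of the Carbachol EC100 and fitted with four-parameter nonlinear regression over an 11-point triplicate dose series. Intracellular Ca++ was tracked for 3 min by fluorescent dye in CHO-K1 cells stably expressing human CHRM4. Cells were preincubated 60 min with 20 μM ATP in buffer containing 2.5 mM probenecid.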

For assay [2], the target named is T2, human cloned CHRM2 receptor (M2_CHO cells) (Homo sapiens, UniProt P08172).
T2 construct: expressed in transfected cells; host or cells: CHO-K1
T2 sequence (P08172 1-466): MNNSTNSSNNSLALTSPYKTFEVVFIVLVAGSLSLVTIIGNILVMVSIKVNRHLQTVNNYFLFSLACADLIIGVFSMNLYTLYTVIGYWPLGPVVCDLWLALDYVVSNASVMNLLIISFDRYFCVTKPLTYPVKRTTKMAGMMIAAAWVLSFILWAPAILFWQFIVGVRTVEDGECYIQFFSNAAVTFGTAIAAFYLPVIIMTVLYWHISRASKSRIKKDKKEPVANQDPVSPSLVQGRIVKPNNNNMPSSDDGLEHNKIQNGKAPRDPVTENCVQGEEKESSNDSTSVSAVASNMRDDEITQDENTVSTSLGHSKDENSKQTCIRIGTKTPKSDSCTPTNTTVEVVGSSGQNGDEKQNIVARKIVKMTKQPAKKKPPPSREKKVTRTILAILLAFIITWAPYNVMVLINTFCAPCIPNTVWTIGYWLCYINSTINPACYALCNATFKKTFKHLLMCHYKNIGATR
The assay can be described thus: CHRM2 Ca++ Flux Assay (agonist mode, FDSS 7000EX). It counts as cell-based. The following applies: for M2 FDSS PA / Emax: Percent Activity measured to EC100 of Carbachol; for Emax: read-out: M2 FDSS PA; for pEC50: agonist mode, geometric mean if tested more than once, read-out: M2 FDSS EC50. The method in brief: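 Response expressed as percent activity versus the Carbachol EC100, with curves fitted by four-parameter non-linear regression of triplicates. Stable M2_CHO cells were Ca++ dye-loaded and preincubated 60 min at room temperature in assay buffer containing 20 μM ATP; signal imaged for 3 minutes after compound.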

Regarding `COc1ccccc1C1CCN([C@H]2CCC3(C2)CN(c2ncco2)C3)CC1` (single isomer, unassigned) [Example 10J, (S)-2-(6-(4-(2-methoxyphenyl)piperidin-1-yl)-2-azaspiro[3.4]octan-2-yl)oxazole or (R)-2-(6-(4-(2-methoxyphenyl)piperidin-1-yl)-2-azaspiro[3.4]octan-2-yl)oxazole], in assay [1], the “M4 FDSS PA” value is given as 67% and the pEC50 was 9.00. The “M2 FDSS PA” value in assay [2] was 42%.

As to `COC(C)(C)CCOc1ccccc1C1CCN([C@@H]2CCC3(C2)CN(C(=O)C2(F)CC2)C3)CC1` (single isomer, unassigned) [Example 7FF, (R)-(1-fluorocyclopropyl)(6-(4-(2-(3-methoxy-3-methylbutoxy)phenyl)piperidin-1-yl)-2-azaspiro[3.4]octan-2-yl)methanone or (S)-(1-fluorocyclopropyl)(6-(4-(2-(3-methoxy-3-methylbutoxy)phenyl)piperidin-1-yl)-2-azaspiro[3.4]octan-2-yl)methanone], in assay [1], the “M4 FDSS PA” value came out at 38% and the pEC50 was 8.30. In addition, in assay [2], the “M2 FDSS PA” value is given as 0%.

With `Cc1ccc(N2CC3(CC[C@@H](N4CCC(c5ccccc5O[C@@H]5CCOC5)CC4)C3)C2)cn1` [Example 5L, (R)-2-(6-methylpyridin-3-yl)-6-(4-(2-(((R)-tetrahydrofuran-3-yl)oxy)phenyl)piperidin-1-yl)-2-azaspiro[3.4]octane], the values for the Emax in assay [1] and in assay [2] were 61% and 36%, respectively. In addition, the pEC50 in assay [1] was 7.54; in assay [2] it was 5.10.

Turning to `FC(F)(F)Oc1ccccc1C1CCN([C@@H]2CCC3(C2)CN(c2ncco2)C3)CC1` (single isomer, unassigned) [Example 10K, (R)-2-(6-(4-(2-(trifluoromethoxy)phenyl)piperidin-1-yl)-2-azaspiro[3.4]octan-2-yl)oxazole or (S)-2-(6-(4-(2-(trifluoromethoxy)phenyl)piperidin-1-yl)-2-azaspiro[3.4]octan-2-yl)oxazole], in assay [1], the “M4 FDSS PA” value is given as 65% and the pEC50 was 8.15. Also, the “M2 FDSS PA” value in assay [2] worked out at 0%.

With `Cc1ncncc1N1CC2(CC[C@@H](N3CCC(c4ccccc4OCC(C)(C)O)CC3)C2)C1` [Example 5C, (R)-2-methyl-1-(2-(1-(2-(4-methylpyrimidin-5-yl)-2-azaspiro[3.4]octan-6-yl)piperidin-4-yl)phenoxy)propan-2-ol], the values for the Emax in assay [1] and in assay [2] were 6% and 0%, respectively. Besides, the pEC50 in assay [1] is less than 4.60.

As for `O=C(C1COC1)N1CC2(CC[C@H](N3CCC(c4ccccc4OC(F)F)CC3)C2)C1.O=C(O)CC(O)(CC(=O)O)C(=O)O` (single isomer, unassigned) [Example 8E, (S)-(6-(4-(2-(difluoromethoxy)phenyl)piperidin-1-yl)-2-azaspiro[3.4]octan-2-yl)(oxetan-3-yl)methanone or (R)-(6-(4-(2-(difluoromethoxy)phenyl)piperidin-1-yl)-2-azaspiro[3.4]octan-2-yl)(oxetan-3-yl)methanone citrate salt], in assay [1] (citrate salt), the “M4 FDSS PA” value stood at 61% and the pEC50 is 8.70. Also, in assay [2] (citrate salt), the “M2 FDSS PA” value was found to be 26% and the pEC50 was 7.02.

For the compound `COc1ccccc1C1CCN([C@@H]2CCC3(C2)CN(c2cnc(C)nc2)C3)CC1` [Example 5E, (R)-6-(4-(2-methoxyphenyl)piperidin-1-yl)-2-(2-methylpyrimidin-5-yl)-2-azaspiro[3.4]octane], in assay [1], the Emax was determined as 2% and the pEC50 is less than 4.60. For the same compound, the Emax in assay [2] came out at 0%.

Regarding `O=C(N1CC2(CC[C@@H](N3CCC(c4ccccc4C4(O)CCOCC4)CC3)C2)C1)C1(F)CC1` (single isomer, unassigned) [Example 9G, (R)-(1-fluorocyclopropyl)(6-(4-(2-(4-hydroxytetrahydro-2H-pyran-4-yl)phenyl)piperidin-1-yl)-2-azaspiro[3.4]octan-2-yl)methanone or (S)-(1-fluorocyclopropyl)(6-(4-(2-(4-hydroxytetrahydro-2H-pyran-4-yl)phenyl)piperidin-1-yl)-2-azaspiro[3.4]octan-2-yl)methanone], in assay [1], the “M4 FDSS PA” value was 14% and the pEC50 was 7.12. In addition, the “M2 FDSS PA” value in assay [2] is 0%.

Take `FC(F)(F)Oc1ccccc1C1CCN([C@@H]2CCC3(C2)CN(c2ncco2)C3)CC1` (single isomer, unassigned) [Example 10L, (R)-2-(6-(4-(2-(trifluoromethoxy)phenyl)piperidin-1-yl)-2-azaspiro[3.4]octan-2-yl)oxazole or (S)-2-(6-(4-(2-(trifluoromethoxy)phenyl)piperidin-1-yl)-2-azaspiro[3.4]octan-2-yl)oxazole]: in assay [1], the “M4 FDSS PA” value came to 57% and the pEC50 was 7.01. Besides, in assay [2], the “M2 FDSS PA” value amounted to 44% and the pEC50 is 4.88.

For the compound `COc1ccccc1C1CCN([C@H]2CCC3(C2)CN(c2ncco2)C3)CC1` (single isomer, unassigned) [Example 10I, S)-2-(6-(4-(2-methoxyphenyl)piperidin-1-yl)-2-azaspiro[3.4]octan-2-yl)oxazole or (R)-2-(6-(4-(2-methoxyphenyl)piperidin-1-yl)-2-azaspiro[3.4]octan-2-yl)oxazole], in assay [1], the “M4 FDSS PA” value came to 17% and the pEC50 is 5.97. Further, the “M2 FDSS PA” value in assay [2] was found to be 0%.

Regarding `Cc1coc(N2CC3(CC[C@@H](N4CCC(c5ccc(F)cc5OCC(C)(C)O)CC4)C3)C2)n1` [Example 3N, (R)-1-(5-fluoro-2-(1-(2-(4-methyloxazol-2-yl)-2-azaspiro[3.4]octan-6-yl)piperidin-4-yl)phenoxy)-2-methylpropan-2-ol], in assay [1], the Emax came out at 0% and the pEC50 was less than 4.60. In addition, the Emax in assay [2] amounted to 0%.

Consider `O=C(N1CC2(CC[C@@H](N3CCC(c4ccccc4OCC4CC4)CC3)C2)C1)C1(F)CC1` (single isomer, unassigned) [Example 7O, (R)-(6-(4-(2-(cyclopropylmethoxy)phenyl)piperidin-1-yl)-2-azaspiro[3.4]octan-2-yl)(1-fluorocyclopropyl)methanone or (R)-(6-(4-(2-(cyclopropylmethoxy)phenyl)piperidin-1-yl)-2-azaspiro[3.4]octan-2-yl)(1-fluorocyclopropyl)methanone], for which, in assay [1], the “M4 FDSS PA” value is reported as 42% and the pEC50 is 8.05. Moreover, in assay [2], the “M2 FDSS PA” value is recorded as 0%.

`COc1ccccc1C1CCN([C@@H]2CCC3(C2)CN(c2cncc(C)n2)C3)CC1` [Example 5G, (R)-6-(4-(2-methoxyphenyl)piperidin-1-yl)-2-(6-methylpyrazin-2-yl)-2-azaspiro[3.4]octane]: in assay [1], the Emax was 1% and the negative-log EC50 (pEC50) was less than 4.60. Further, in assay [2], the Emax was 0%.

As for `O=C(N1CC2(CC[C@@H](N3CCC(c4ccccc4OC4CCOCC4)CC3)C2)C1)C1(F)CC1` (single isomer, unassigned) [Example 9F, (R)-(1-fluorocyclopropyl)(6-(4-(2-((tetrahydro-2H-pyran-4-yl)oxy)phenyl)piperidin-1-yl)-2-azaspiro[3.4]octan-2-yl)methanone or (S)-(1-fluorocyclopropyl)(6-(4-(2-((tetrahydro-2H-pyran-4-yl)oxy)phenyl)piperidin-1-yl)-2-azaspiro[3.4]octan-2-yl)methanone], in assay [1], the “M4 FDSS PA” value is 47% and the pEC50 is 6.81. Further, the “M2 FDSS PA” value in assay [2] is on record as 0%.

For `COc1ccccc1C1CCN([C@@H]2CCC3(C2)CN(c2cc(Cl)nnc2Cl)C3)CC1` [Example 5R, (R)-2-(3,6-dichloropyridazin-4-yl)-6-(4-(2-methoxyphenyl)piperidin-1-yl)-2-azaspiro[3.4]octane], in assay [1], the Emax was 51% and the pEC50 is 6.88. Moreover, in assay [2], the Emax was 0%.
